The source of these data is PMC5006990 (PLoS ONE, 2016).

Assay [1] has as its system M. tuberculosis ATCC 35801 (strain Erdman). In words: Microtiter broth dilution MIC, Mtb Erdman. Conditions: for MIC (μg/mL) Mtb: Erdmann strain (ATCC 35801), screening rounds 1 and 2; for MIC (μg/mL) Mtb Erdman: Table 1 panel. In general terms: In broth dilution the organism is exposed to a series of concentrations in liquid medium.
For a further assay, the system named is Mtb. Conditions: cited from earlier work; for inhibition of the growth of Mtb: in words.
The test system of assay [2] is M. smegmatis (Overexpressing DHFR Strain 2). The assay is described as follows: MIC against M. smegmatis overexpressing DHFR, strain 2. The following applies: Mycolicibacterium smegmatis, read-out: MIC (µg/mL) M. smegmatis (Overexpressing DHFR Strain 2).
The next assay has as its system Mtb 276. In words: microbe, parasite or virus in culture. The class given is cell-based, Mycobacterium tuberculosis. Conditions: Mycobacterium tuberculosis, 276, read-out: MIC (μg/mL) Mtb 276.
A further assay deals with Mtb 365. In words: microbe, parasite or virus in culture. The format is cell-based, Mycobacterium tuberculosis. The following applies: Mycobacterium tuberculosis, 365, read-out: MIC (μg/mL) Mtb 365.
For another assay, the system named is Mtb 352. The assay is described as follows: microbe, parasite or virus in culture. The class given is cell-based, Mycobacterium tuberculosis. Conditions: Mycobacterium tuberculosis, 352, read-out: MIC (μg/mL) Mtb 352.
The next assay relates to Mtb 56. In words: microbe, parasite or virus in culture. Conditions: Mycobacterium tuberculosis, 56, read-out: MIC (μg/mL) Mtb 56. The format is cell-based, Mycobacterium tuberculosis.
In assay [3] the test system is M. smegmatis (parent strain). The assay is described as follows: MIC against M. smegmatis parent strain. The following applies: Mycolicibacterium smegmatis, read-out: MIC (µg/mL) M. smegmatis (parent strain).
For the next assay, the system named is Mtb 5. The assay is described as follows: microbe, parasite or virus in culture. The format is cell-based, Mycobacterium tuberculosis. The following applies: Mycobacterium tuberculosis, 5, read-out: MIC (μg/mL) Mtb 5.
The next assay deals with Mtb C-31. The assay is described as follows: microbe, parasite or virus in culture. The format is cell-based. Conditions: Mycobacterium tuberculosis, C31, read-out: MIC (μg/mL) Mtb C-31.
Assay [4] concerns M. smegmatis (Overexpressing DHFR Strain 1). The assay is described as follows: MIC against M. smegmatis overexpressing DHFR, strain 1. Conditions: Mycolicibacterium smegmatis, read-out: MIC (µg/mL) M. smegmatis (Overexpressing DHFR Strain 1).
Assay [5] addresses T1, MtbDHFR (Mycobacterium tuberculosis, UniProt P9WNX1). The following applies: in words; cited from earlier work.
Assay [6] concerns the target T1, MtbDHFR. The assay is described as follows: biochemical. The format is biochemical.
For the next assay, the target named is T2, HuDHFR (Homo sapiens, UniProt P00374).
T2 construct: made in house
T2 sequence (P00374 1-187): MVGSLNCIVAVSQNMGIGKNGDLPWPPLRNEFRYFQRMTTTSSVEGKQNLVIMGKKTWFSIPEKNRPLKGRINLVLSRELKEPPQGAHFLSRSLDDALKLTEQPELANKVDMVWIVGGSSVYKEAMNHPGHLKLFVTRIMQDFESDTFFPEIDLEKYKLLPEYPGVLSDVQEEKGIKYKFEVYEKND
The assay is described as follows: Human DHFR enzyme inhibition (NADPH oxidation at 340 nm). The class given is biochemical. Conditions: triplicate, mean ± SD.

Each structure is given as a SMILES string. Converted amounts (≈) assume the structure as drawn. Where two headings read alike, the source gives them in different places.

T1 sequence (P9WNX1 whole entry): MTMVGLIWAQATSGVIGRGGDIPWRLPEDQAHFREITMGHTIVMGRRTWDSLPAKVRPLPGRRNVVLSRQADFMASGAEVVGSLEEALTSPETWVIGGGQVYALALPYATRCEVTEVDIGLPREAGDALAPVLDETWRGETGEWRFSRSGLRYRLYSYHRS

`COc1cc(Cc2cnc(N)nc2N)cc(OC)c1OC` [TMP, reference compound]: the “MIC (μg/mL) Mtb” value in [1] came out at 256 µg/mL (≈ 882 µM).
Same read-out and setting: the value for `CCc1nc(N)nc(N)c1C#C[C@H](C)c1cc(-c2ccncc2)ccc1OC` [UCP1063] was 2 µg/mL (≈ 5.36 µM).
`Nc1nc(N)c2c(Cl)c(CNc3ccc(C(=O)O)cc3)ccc2n1` [DQn-1]: the values for the MIC in the assay with Mtb (Glaxo antifolate collection screen) and with Mtb (Glaxo antifolate library screen) were 0.03 µM and 0.03 µg/mL, respectively.
As for `CCc1nc(N)nc(N)c1C#C[C@@H](C)c1cc(-c2ccc(C(=O)O)cc2)ccc1OC` [UCP1164], the “MIC (μg/mL) Mtb” value in [1] amounted to 0.5 µg/mL (≈ 1.2 µM).
With `CCc1nc(N)nc(N)c1C#CC(C)c1cc2c(c(-c3cncn3C)c1)OCO2` (stereo not shown) [UCP1102], the MIC in assay [2] is 32 µg/mL (≈ 82 µM); in the assay on Mtb 276 it was 4 µg/mL (≈ 10.2 µM); with Mtb 365, 8 µg/mL (≈ 20.5 µM); in the assay with Mtb 352, 4 µg/mL (≈ 10.2 µM); in the assay on Mtb 56 it was 8 µg/mL (≈ 20.5 µM); in assay [3], 1 µg/mL (≈ 2.56 µM). Further, the MIC in the assay on Mtb 5 was found to be 8 µg/mL (≈ 20.5 µM); with Mtb C-31 it was 8 µg/mL (≈ 20.5 µM); in [4] it was 64 µg/mL (≈ 164 µM). In addition, the “MIC (μg/mL) Mtb” value in assay [1] was 2 µg/mL (≈ 5.12 µM). In addition, the “MIC (μg/mL) Mtb Erdman” value in assay [1] came to 4 µg/mL (≈ 10.2 µM).
With `CCc1nc(N)nc(N)c1-c1ccc(Cl)cc1` [pyrimethamine], the “inhibition of the growth of Mtb” value with Mtb is recorded as “fail to inhibit the growth”. Besides, the “inhibition of the MtbDHFR enzyme” value at MtbDHFR [5] is “potent inhibitors”.
Take `NNC(=O)c1ccncc1` [INH, Isoniazid, reference compound]: the MIC is 2 µg/mL (≈ 14.6 µM) in the assay with Mtb 365; 1 µg/mL (≈ 7.29 µM) with Mtb 352; 1 µg/mL (≈ 7.29 µM) in the assay on Mtb 56; 4 µg/mL (≈ 29.2 µM) with Mtb 5; 4 µg/mL (≈ 29.2 µM) in the assay with Mtb C-31. Further, in [1], the “MIC (μg/mL) Mtb” value worked out at 0.03 µg/mL (≈ 0.219 µM). Besides, the “MIC (μg/mL) Mtb Erdman” value in assay [1] came to 0.125 µg/mL (≈ 0.911 µM).
`CN(Cc1cnc2nc(N)nc(N)c2n1)c1ccc(C(=O)N[C@@H](CCC(=O)O)C(=O)O)cc1` [Methotrexate]: the “inhibition of the growth of Mtb” value in the assay on Mtb is “fail to inhibit the growth”.
A word on the IC50: it is the midpoint of a concentration-inhibition curve. Take `CCc1nc(N)nc(N)c1C#C[C@H](C)c1cc2c(c(-c3ccncc3)c1)OCO2` [UCP1098]: the MIC is 32 µg/mL (≈ 82.6 µM) in assay [2]; 8 µg/mL (≈ 20.6 µM) in the assay with Mtb 276; 4 µg/mL (≈ 10.3 µM) in the assay with Mtb 365; 8 µg/mL (≈ 20.6 µM) with Mtb 352; 8 µg/mL (≈ 20.6 µM) with Mtb 56; 0.5 µg/mL (≈ 1.29 µM) in [3]. Further, the MIC in the assay with Mtb 5 is 8 µg/mL (≈ 20.6 µM); in the assay on Mtb C-31 it was 16 µg/mL (≈ 41.3 µM); in assay [4], 64 µg/mL (≈ 165 µM). Further, the IC50 on MtbDHFR [6] came out at 206 ± 6 nM. Also, in [1], the “MIC (μg/mL) Mtb” value was 4 µg/mL (≈ 10.3 µM). The “MIC (μg/mL) Mtb Erdman” value in [1] amounted to 8 µg/mL (≈ 20.6 µM).
In the case of `CCc1nc(N)nc(N)c1C#C[C@H](C)c1cc(OC)cc(-c2ccc(C(=O)O)cc2)c1` [UCP1172], the MIC was below 0.03 µg/mL in the assay with Mtb 365; 0.06 µg/mL (≈ 0.144 µM) in the assay on Mtb 352; 0.06 µg/mL (≈ 0.144 µM) with Mtb 56; 0.25 µg/mL (≈ 0.6 µM) in the assay with Mtb 5; 8 µg/mL (≈ 19.2 µM) in the assay on Mtb C-31. Also, in assay [1], the “MIC (μg/mL) Mtb” value is below 0.03 µg/mL. The “MIC (μg/mL) Mtb Erdman” value in assay [1] is below 0.03 µg/mL.
`CCc1nc(N)nc(N)c1C#CCc1cc(-c2ccc(C(=O)O)cc2)ccc1OC` [UCP1106]: the MIC is above 32 µg/mL in assay [2]; 16 µg/mL (≈ 39.8 µM) with Mtb 276; 4 µg/mL (≈ 9.94 µM) in the assay on Mtb 365; 16 µg/mL (≈ 39.8 µM) with Mtb 352; 16 µg/mL (≈ 39.8 µM) with Mtb 56; 8 µg/mL (≈ 19.9 µM) in assay [3]. Also, the MIC in the assay on Mtb 5 is 8 µg/mL (≈ 19.9 µM); in the assay with Mtb C-31, above 32 µg/mL; in assay [4], above 32 µg/mL. Moreover, in assay [1], the “MIC (μg/mL) Mtb” value was 4 µg/mL (≈ 9.94 µM). Further, the “MIC (μg/mL) Mtb Erdman” value in assay [1] stood at 16 µg/mL (≈ 39.8 µM).
For `CCc1nc(N)nc(N)c1C#CCc1cc(OC)cc(-c2ccc(C(=O)O)cc2)c1` [UCP1175], the MIC is 0.125 µg/mL (≈ 0.311 µM) in the assay on Mtb 365; 0.5 µg/mL (≈ 1.24 µM) in the assay on Mtb 352; 0.5 µg/mL (≈ 1.24 µM) with Mtb 56; 2 µg/mL (≈ 4.97 µM) in the assay on Mtb 5; 8 µg/mL (≈ 19.9 µM) with Mtb C-31. At MtbDHFR [6] (IC50 (nM) MtbDHFR), this compound had an IC50 of 460 ± 50 nM. In assay [1], the “MIC (μg/mL) Mtb” value was determined as 0.125 µg/mL (≈ 0.311 µM). The “MIC (μg/mL) Mtb Erdman” value in [1] is 0.5 µg/mL (≈ 1.24 µM).
Regarding `CCc1nc(N)nc(N)c1C#C[C@H](C)c1cc(-c2ccc(C(=O)O)cc2)ccc1OC` [UCP1163], the “MIC (μg/mL) Mtb” value in assay [1] came out at 16 µg/mL (≈ 38.4 µM).
On to `CCc1nc(N)nc(N)c1C#CC(C)c1cc(-c2cncn2C)ccc1OC` (stereo not shown) [UCP1084], for which the MIC was 16 µg/mL (≈ 42.5 µM) in [2]; 4 µg/mL (≈ 10.6 µM) with Mtb 276; 4 µg/mL (≈ 10.6 µM) in the assay on Mtb 365; 4 µg/mL (≈ 10.6 µM) in the assay with Mtb 352; 4 µg/mL (≈ 10.6 µM) in the assay on Mtb 56; 1 µg/mL (≈ 2.66 µM) in assay [3]. The MIC with Mtb 5 was found to be 4 µg/mL (≈ 10.6 µM); with Mtb C-31, 8 µg/mL (≈ 21.3 µM); in assay [4], 64 µg/mL (≈ 170 µM). Also, in assay [1], the “MIC (μg/mL) Mtb” value turned out to be 2 µg/mL (≈ 5.31 µM). Also, the “MIC (μg/mL) Mtb Erdman” value in [1] amounted to 4 µg/mL (≈ 10.6 µM).
Regarding `CCc1nc(N)nc(N)c1C#CCc1cc(OC)c(OC)c(-c2ccncc2)c1` [UCP1039], the IC50 against HuDHFR is 495 ± 58 nM; on MtbDHFR [6] (triplicate, mean ± SD, read-out: IC50 (nM) MtbDHFR), 297 ± 38 nM. In addition, the “MIC (μg/mL) Mtb” value in assay [1] came to 32 µg/mL (≈ 82.2 µM).
As to `COc1cc(NCc2ccc3nc(N)nc(N)c3c2C)cc(OC)c1OC` [Trimetrexate], the “inhibition of the growth of Mtb” value in the assay on Mtb is on record as “fail to inhibit the growth”. For the same compound, the “inhibition of the MtbDHFR enzyme” value on MtbDHFR [5] is “potent inhibitors”. Also, the “MIC (μg/mL) Mtb” value in assay [1] came to 4 µg/mL (≈ 10.8 µM).
